Source: patent US8802240B2, “Uses of formulations of thyroid hormone analogs and nanoparticulate forms thereof to increase chemosensitivity and radiosensitivity in tumor or cancer cells” (Nanopharmaceuticals LLC, priority 2011, dated 2014)
“Also recorded” adds a separate entry of the source.

Key:
human cancer xenografts = settings: in vivo; cited from earlier work
MDA-MB-231 cells = experiment: RNA microarray of MDA-MB-231 cells; type: cell-based, human
Experimental: MDA-MB-231 cells were maintained in DMEM that was supplemented with 10% FBS in a 5% CO2/95% 02 air incubator at 37° C. For two days prior to exposure to Tetrac and nanoparticulate Tetrac, cells were maintained in 0.25% FBS that was stripped of estrogen and thyroid hormone. (See Lin et al., Biochemistry 42: 7571-7579 (2003)).
Microarray analysis experiments were conducted as described previously. (See Glinsky et al., J Clin Invest 115: 1503-1521 (2005); Glinsky et al., J Clin Invest 113: 913-923 (2004); Glinsky et al., Clin Cancer Res 10: 2272-2283 (2004); and Glinsky et al., Mol Carcinog 37: 209-221 (2003)). […] Sample purity and integrity were verified with an Agilent BioAnalyzer (Santa Clara, Calif.). Expression analysis of 54,675 transcripts for each sample was by Affymetrix HG-U133A Plus 2.0 arrays. MAS5.0 software was used for data retrieval and analysis and concordant changes of gene expression in response to unmodified Tetrac and nanoparticulate Tetrac were defined by two-tailed t test at a threshold p value<0.01.
Expression of ˜54,000 transcripts was analyzed in control and drug-treated cultures, using Affymetrix Human Genome U133 plus 2.0 microarrays. Subsequent analysis was focused on genes affected by treatment at p<0.01. There was 93% concordance between Tetrac and Tetrac NP in terms of genes affected; notable disparities included downregulation of epidermal growth factor receptor (EGFR) by Tetrac NP and no affect of unmodified Tetrac on this gene.

[1] = tested on: U87MG human glioblastoma cells; experiment: U87MG clonogenic survival after 250 kVp single dose x-irradiation; type: cell-based
Experimental: To irradiate culture flasks, a Philips 250 kVp x-ray machine (Philips Corp., Fall River, Mass.) operated at 250 kVp and 15 mA with added filtration of a 0.4 mm Thoreaus filter was used. The target to source distance was 30 cm. Dose rates were measured using an R-meter (Victoreen Co., Cleveland, Ohio), and converted to absorbed (Gy) doses using appropriate temperature, pressure, and R to Gy conversion factors. The dose rate was approximately 1 Gy/min. Flasks were irradiated after being taken from a 37° C. environment and moved to the x-ray source. Movement at ambient temperature took approximately 1-2 min. Cells were next placed on ice and allowed to cool for 5 min. Lastly, flasks were placed in the Philips irradiator on top of a 2 mm thickness of Lucite which was on top of a layer of crushed ice.
The maximum time needed for irradiation of the single dose survival curve was approximately 8 min.
For SHMT analysis, data lying at or below a fractional survival (F×S) value of 0.368 were fit using a linear regression analysis of the log survival data versus linear dose. From this fit the extrapolation number (n), the quasi-threshold dose (Dq, Gy) and the inverse of the inactivation slope (Do, Gy) were derived.
For LQ analyses, survival data lying between the fractional survivals of 1.00 and 0.05 were used. The log survival data were transformed to a linear form using the relationship (−ln F×S/D) and plotted against D. A linear regression analysis was performed to yield the LQ equation along with the 95% confidence limits on the y-intercept (alpha) and the slope (beta) using a t-table with the appropriate (N−1) degrees of freedom. (See Goldstein A. Biostatistics, Academic Press, 1995.)

SMILES: O=C(O)Cc1cc(I)c(Oc2cc(I)c(O)c(I)c2)c(I)c1 [Tetrac, tetraiodothyroacetic acid]
- systemic toxicity (in words) (human cancer xenografts): have not to-date shown systemic toxicity
- Change: BCL2L14 (MDA-MB-231 cells): not a significant stimulatory action and ↑
- Change: CASP2, Caspase 2 (MDA-MB-231 cells): not a significant stimulatory action and ↑
- Change: CBY1, Catenin inhibitor (MDA-MB-231 cells): significantly increased and induced and ↑
- Change: CDKN2C, Cyclin-dependent kinase inhibitor (MDA-MB-231 cells): ↑
- Change: CTNNA1, Catenin (MDA-MB-231 cells): ↓
- Change: CTNNA2, Catenin (MDA-MB-231 cells): ↓
- Change: CTSL1, Cathepsin 1 (MDA-MB-231 cells): ↓
- Change: CXCL10, Anti-endothelial cell chemokine (MDA-MB-231 cells): ↑
- Change: Cyclins, Cell cycle regulators (MDA-MB-231 cells): ↓
- Change: EDN1, Endothelin-1 (MDA-MB-231 cells): ↑
- Change: Interleukins, Inflammatory cytokines (MDA-MB-231 cells): ↓
- Change: MCL1, Myeloid cell leukemia-1 (MDA-MB-231 cells): did not significantly affect and ↓
- Change: NR1D1, Nuclear receptor Rev-erbα (MDA-MB-231 cells): ↓
- Change: THBS1, Thrombospondin (MDA-MB-231 cells): strongly induced and ↑
- Change: XIAP, X-linked inhibitor of apoptosis protein (MDA-MB-231 cells): acted on XIAP and ↓
- expression of epidermal growth factor receptor (EGFR) (in words) (MDA-MB-231 cells): ineffective; also recorded: no affect
- increase of α (ratio of the alpha values, sensitization factor) [1]: 3.6 fold
- isoeffect comparison at 10% survival, ratio [1]: 2.2
- ratio of relative survival values at 2 Gy [1]: 4.6
- reduction of the D0 value [1]: 31%
- β (LQ) ([1]; Tetrac treated cells, control 0.016 (±0.002)): 0.076 (±0.006)
- n (SHMT) ([1]; Tetrac treated cells, control 2.97 (2.41-3.21)): 1.01 (0.45-2.3)
- sensitization factor, average of 3 comparisons ([1]; range of 2.2 to 4.6): 3.5
